Results taken from article PMC8496750, “Identification of the organic anion transporting polypeptides responsible for the hepatic uptake of the major metabolite of epyrifenacil, S‐3100‐CA, in mice” (Pharmacology Research & Perspectives, 2021).

What was measured:
[1] = biological target: T1, rat Oatp1a1 (Rattus norvegicus, UniProt P46720); assay: Uptake assay for radiolabeled substrates, rat Oatp1a1 expressing 293FT cells; type: in vitro ADME; settings: for Ratio of uptake amount relative to the uptake into mock cells: 10‐min incubation
T1 construct: expressed in transfected cells; host or cells: 293FT cells
T1 sequence (P46720 1-670): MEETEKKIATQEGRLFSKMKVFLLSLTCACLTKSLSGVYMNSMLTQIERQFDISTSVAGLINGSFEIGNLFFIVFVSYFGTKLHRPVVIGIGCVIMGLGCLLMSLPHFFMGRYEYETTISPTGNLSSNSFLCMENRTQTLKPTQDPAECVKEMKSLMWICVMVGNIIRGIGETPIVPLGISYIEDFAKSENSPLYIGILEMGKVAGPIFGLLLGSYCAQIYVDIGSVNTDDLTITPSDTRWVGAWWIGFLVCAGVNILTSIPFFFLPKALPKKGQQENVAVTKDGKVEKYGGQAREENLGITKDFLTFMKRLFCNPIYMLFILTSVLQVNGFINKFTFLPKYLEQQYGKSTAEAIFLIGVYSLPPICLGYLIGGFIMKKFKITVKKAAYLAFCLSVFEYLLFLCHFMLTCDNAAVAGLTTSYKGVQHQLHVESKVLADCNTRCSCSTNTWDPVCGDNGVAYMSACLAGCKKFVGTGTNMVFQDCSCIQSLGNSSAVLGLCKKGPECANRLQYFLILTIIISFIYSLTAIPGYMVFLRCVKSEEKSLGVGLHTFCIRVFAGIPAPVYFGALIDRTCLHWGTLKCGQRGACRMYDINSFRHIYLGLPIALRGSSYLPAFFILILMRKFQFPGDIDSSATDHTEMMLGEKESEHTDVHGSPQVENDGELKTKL
Protocol: (§1) 293FT cells were purchased from Thermo Fisher Scientific, Inc.. The cells were grown in Dulbecco's modified Eagle medium (supplemented with 4.5 g/L glucose and 2 mM L‐glutamine) at 37°C, 5% CO2, and 95% humidity. The cells were passaged 3 times per week by harvesting cells using trypsin and plating at a density of 1.0 × 10^4 cells/cm^2 in a 10 cm cell culture plate for maintenance culture. The 293FT cells were detached using trypsin and re‐seeded at a density of 2.5 × 10^4 cells/cm^2 in BioCoat™ Collagen I 6‐well plates (Corning Inc.) for transfection and then treated with 1.2 μg of plasmid vector and 3.2 μl of Lipofectamine™ 2000 Transfection Reagent (Thermo Fisher Scientific, Inc.) according to the manufacturer's instructions. After a 3‐h treatment, the transfection medium was replaced with a fresh cell culture medium and incubated at 37°C with 95% humidity and 5% CO2 until ready for the assay.
(§2) Transport experiments were conducted approximately 24 h post‐transfection. The experiments were initiated by aspirating culture medium and addition of pre‐warmed radiolabeled substrate solution (final 1.0% of acetonitrile or 0.9% of ethanol in phosphate‐buffered saline (PBS[−])) to each well. After a 10‐min incubation, cells were washed twice with 1 ml of ice‐cold PBS(−) and lysed with 700 μl of 1.0 M NaOH for 3 h or more at room temperature. The lysate was transferred to a 1.5‐ml tube, and neutralized with 350 μl of 2.0 M HCl and 350 μl of 2.0% sodium dodecyl sulfate (SDS) solution. From the lysate, 1.0 ml was transferred to a vial containing 10 ml of Emulsifier Scintillator Plus to measure the radioactivity in the LSC. The protein concentration of the cell lysate was also measured using a Pierce™ BCA Protein Assay Kit (Thermo Fisher Scientific, Inc.), which was used to normalize, according to the cell number, the radioactivity in the cell lysate extract. The protein assay was performed in duplicate. Each sample type was assayed in triplicate wells, and each run was performed twice. When the difference in mean uptake between OATP expressing cells and mock cells was more than 2 times, the OATP was judged to be involved in transportation of the substrate. […] Each sample type was assayed in triplicate wells.

[2] = biological target: T2, mouse Oatp1a4 (Mus musculus, UniProt Q9EP96); assay: Uptake assay for radiolabeled substrates, mouse Oatp1a4 expressing 293FT cells; settings: 10‐min incubation
T2 sequence (Q9EP96 1-670): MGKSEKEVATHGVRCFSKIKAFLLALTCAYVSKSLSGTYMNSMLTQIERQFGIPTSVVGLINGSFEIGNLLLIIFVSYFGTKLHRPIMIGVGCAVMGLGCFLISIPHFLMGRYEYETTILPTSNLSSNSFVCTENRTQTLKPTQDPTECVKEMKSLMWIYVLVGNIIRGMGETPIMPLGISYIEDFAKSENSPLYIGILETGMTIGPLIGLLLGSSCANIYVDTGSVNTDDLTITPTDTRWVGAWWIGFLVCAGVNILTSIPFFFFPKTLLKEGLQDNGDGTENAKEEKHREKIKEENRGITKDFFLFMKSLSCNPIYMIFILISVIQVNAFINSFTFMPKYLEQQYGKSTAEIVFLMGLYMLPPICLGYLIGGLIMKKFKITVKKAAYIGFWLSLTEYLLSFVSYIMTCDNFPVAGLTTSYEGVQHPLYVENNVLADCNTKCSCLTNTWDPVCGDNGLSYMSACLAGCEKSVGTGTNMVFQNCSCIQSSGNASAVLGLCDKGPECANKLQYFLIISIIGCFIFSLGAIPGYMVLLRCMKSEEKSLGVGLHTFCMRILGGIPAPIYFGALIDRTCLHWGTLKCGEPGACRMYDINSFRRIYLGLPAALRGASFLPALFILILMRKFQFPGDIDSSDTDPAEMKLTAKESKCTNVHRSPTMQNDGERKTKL
Protocol: as §1, §2

[3] = tested on: hepatocytes; set-up: method as in PMID 34908893; settings: mouse vs human hepatocytes; cited from earlier work

| Structure (SMILES) | Ratio of uptake amount relative to the uptake into mock cells ([1]; Run_1) | Ratio of uptake amount relative to the uptake into mock cells ([1]; Run_2) | Ratio of uptake amount relative to the uptake into mock cells ([2]; Run_1) | Ratio of uptake amount relative to the uptake into mock cells ([2]; Run_2) | Amount taken up by mouse hepatocytes relative to human hepatocytes [3] | Uptake, times higher than in mock cells [1] |
| --- | --- | --- | --- | --- | --- | --- |
| Cn1c(C(F)(F)F)cc(=O)n(-c2cc(Oc3cccnc3OCC(=O)O)c(Cl)cc2F)c1=O [S‐3100‐CA] | 11.7 | 8.7 | 8.1 | 4.2 | 6–13 times |  |
| C[C@]12CC[C@@H]3c4ccc(OS(=O)(=O)O)cc4CC[C@H]3[C@@H]1CCC2=O [E3S, Estrone 3‐sulfate] | 28.6 | 13.6 | 1.1 | 1.1 |  |  |
| C[C@]12CC[C@@H]3c4ccc(O)cc4CC[C@H]3[C@@H]1CC[C@@H]2O[C@@H]1O[C@H](C(=O)O)[C@@H](O)[C@H](O)[C@H]1O [E217βG, Estradiol 17β‐D‐glucuronide] | 59.1 | 65.4 | 3.7 | 3.3 |  | > 50 times |
